Laboratory results published in US20240041039A1, “COMPOSITIONS AND METHODS FOR CONTROLLING PLANT PATHOGENS INCLUDING NEMATODES” (Kannar Earth Science, Ltd., priority 2022, published 2024).

Test system: root knot Meloidogyne sp. nematodes
Experiment: Two-minute contact of live root-knot nematodes with water-based solutions in watch glass
Format: in vivo
Settings: one drop of water-based solution, fatality recorded within 45 seconds
Method: Live root knot nematodes were collected from soil and kept in shallow water in small glass beakers at room temperature. The individual components and combined formulation were prepared according to the following procedures. Aqueous solutions of individual components were prepared at the concentrations as follows: 400 ppm baicalin (95% purity; Shaanxi Darwin Biotech Co, China), 500 ppm water soluble chitosan (85% purity; Shaanxi Rainwood Biotech Co Ltd, China) and 200 ppm L-glutathione (99% purity; Hunan Insen Biotech Co Ltd, China). Since use of liquid polymer is quite common in seed treatment for better and smoother coating or coverage, each of the individual components and combinations of the components was also prepared as a solution in a cellulose-based carrier (Slurry Buddy 110 from […] Science, Ltd.). Baicalin was dissolved in 1.0 ml of DMSO separately prior to addition to the carrier. Chitosan and glutathione were dissolved in 7.8 ml water prior to addition to the 90.0 ml carrier. In each case, the pH of the solution was adjusted to 5.7. […] This liquid flowable formulation can be used as a ready-to-use (RTU) formulation for seed application. […] One drop of the water-based solutions described above was added to the watch glass with the swimming nematode and the reaction of the nematode was recorded for a period of two-minutes. […]

Row | SMILES | Nematode Reaction
1 | O=C(O)[C@H]1O[C@@H](Oc2cc3oc(-c4ccccc4)cc(=O)c3c(O)c2O)[C@H](O)[C@@H](O)[C@@H]1O [Baicalin, baicalin] | Repelling
2 | N[C@@H](CCC(=O)N[C@@H](CS)C(=O)NCC(=O)O)C(=O)O [Glutathione, L-glutathione] | Repelling
